Literature values, collected in patent publication US20240408163A1, “CAPILLARY NUTRITIONAL COMPLEX” (NATURAL FOLIC, S.L., priority 2023, published 2024).

## CC1=C(/C=C/C(C)=C/C=C/C(C)=C/C=C/C=C(C)/C=C/C=C(C)/C=C/C2=C(C)C(=O)[C@@H](O)CC2(C)C)C(C)(C)C[C@H](O)C1=O [Astaxanthin]
Times more powerful than coenzyme Q10
  antioxidant power relative to coenzyme Q10: 800 times
Times more powerful than vitamin C
  antioxidant power relative to vitamin C: 6000 times
